Six molecules from ChEMBL document CHEMBL4842309, “(9βH)- and 17-Nor-Pimaranes from Icacina oliviformis” (J Nat Prod, 2021) can be followed below.

Activity calls are given as the source filed them. The rule behind the calls is not given here.

Type in all cases: functional, cell-based
The test system of test [1] is OVCAR-3. In words: Cytotoxicity against human OVCAR-3 cells assessed as inhibition of cell proliferation measured after 72 hrs by CellTiter 96 AQueous One Solution Cell Proliferation assay. As to conditions: for IC50: OVCAR-3, 72 h.
Test [2] deals with MDA-MB-435. In words: Cytotoxicity against human MDA-MB-435 cells assessed as inhibition of cell proliferation measured after 72 hrs by CellTiter 96 AQueous One Solution Cell Proliferation assay. As to conditions: for IC50: MDA-MB-435, 72 h.
Test [3] concerns MDA-MB-231. In words: Cytotoxicity against human MDA-MB-231 cells assessed as inhibition of cell proliferation measured after 72 hrs by CellTiter 96 AQueous One Solution Cell Proliferation assay. The note with it: for IC50: MDA-MB-231, 72 h.
Test [4] relates to HL-60. In words: Cytotoxicity against human HL-60 cells assessed as reduction in cell viability incubated for 72 hrs by MTT assay. As to conditions: HL-60, 72 h.
Test [5] concerns SF-295. In words: Cytotoxicity against human SF-295 cells assessed as reduction in cell viability incubated for 72 hrs by MTT assay. As to conditions: SF-295, 72 h.
The test system of test [6] is HCT-116. In words: Cytotoxicity against human HCT-116 cells assessed as reduction in cell viability incubated for 72 hrs by MTT assay. The note with it: HCT-116, 72 h.
For test [7], the system named is PC-3. In words: Cytotoxicity against human PC-3 cells assessed as reduction in cell viability incubated for 72 hrs by MTT assay. The note with it: PC-3, 72 h.
In test [8] the test system is A2780. In words: Cytotoxicity against human A2780 cells assessed as reduction in cell viability incubated for 72 hrs by MTT assay. The note with it: A2780, 72 h.
The test system of test [9] is HepG2. In words: Cytotoxicity against human HepG2 cells assessed as reduction in cell viability incubated for 72 hrs by MTT assay. The note with it: HepG2, 72 h.
Test [10] relates to HT-29. In words: Cytotoxicity against human HT-29 cells measured after 72 hrs by CellTiter 96 AQueous One Solution Cell Proliferation assay. As to conditions: HT-29, 72 h.

Turning to `C[C@@]1([C@H](O)CO)CC[C@@H]2C(=C[C@H]3OC(=O)[C@@]4(C)CCC[C@@]2(C)[C@@H]34)C1`, the result in test [1], in test [2] and in test [3] was inactive.

In the case of `COc1cc2c(c3occc13)C[C@H]1OC(=O)[C@]3(C)[C@H]1[C@@]21CO[C@]3(O)[C@@H](O[C@@H]2O[C@H](CO)[C@@H](O)[C@H](O)[C@H]2O)C1`, the outcome in [1], in test [2] and in [3] was inactive.

In the case of `C[C@@]1(C(=O)CO)CC[C@@H]2C(=C[C@H]3OC(=O)[C@]4(C)[C@H]3[C@]23CC[C@@]4(O)OC3)C1`, the IC50 worked out at 2.1 µM in test [4]; 2.2 µM in test [5]; 1.7 µM in test [6]; 4.4 µM in test [1]; 2.3 µM in test [2]; 3.6 µM in test [7]. Further, the IC50 in [8] came to 3.9 µM; in [9], 5.7 µM; in test [3] it was 2.7 µM.

Regarding `C[C@@]12CC[C@@H]3C(=C[C@H]4OC(=O)[C@]5(C)[C@H]4[C@]34CC[C@@]5(O)OC4)[C@]1(O)OC[C@H]2O`, the IC50 in [10] amounted to 4.2 µM; in [1], 5.6 µM; in test [2] it was 2.8 µM; in test [8], 1.7 µM; in test [3] it was 3.4 µM.

In the case of `COc1cc2c(c3occc13)C[C@@H](O)[C@@H]1[C@]23CC[C@@H](O[C@@H]2O[C@H](CO)[C@@H](O)[C@H](O)[C@H]2O)[C@@]1(C)C(=O)OC3`, the result in test [1], in test [2] and in test [3] was inactive.

For the molecule `CO[C@@]12OC[C@@H](O)[C@]1(C)CC[C@@H]1C2=C[C@H]2OC(=O)[C@]3(C)[C@H]2[C@]12CC[C@@]3(O)OC2`, the values for the 50% inhibitory concentration (IC50) in test [1], in test [2] and in test [3] were 6.3 µM, 3.6 µM and 4 µM, respectively.
